Where “and” joins values, the source holds several entries; their conditions need not be identical. Equal entries are not always repeated.
How the values were obtained:
Assay type in all cases: cell-based, human
AT1R = test: BRET recording of AT1R removal from the PM (AT1R-RlucII / rGFP-CAAX); details: for AngII-promoted BRET, AT1R removal from the PM: Comp 21 50 μM, individual experiments
Method: HEK293SL cells were seeded at a density of 7.5 × 10^5 cells per 100-mm dish and 24 h later, transiently transfected as such. For receptor internalization experiments, cells were transfected with 0.12 μg AT1R-RlucII, B2R-RlucII, or β2AR-RlucII and 0.48 μg of either rGFP-CAAX (to assess removal from the PM) or rGFP-FYVE (to assess accumulation in the endosomes). For β-arrestin recruitment assays, cells were transfected with 0.48 μg of receptor-YFP along with 0.12 μg of β-arrestin-RlucII. For β-arrestin/AP-2 binding experiments, cells were transfected with 1 μg Flag-AT1R, 1 μg β2-Adaptin-YFP, and 0.12 μg β-arrestin2-RlucII. For G protein activation, cells were transfected with 3 μg of sp-Flag-AT1R along with either 4.5 μg of the Gαq-polycistronic BRET sensor or 0.24 μg of the Gαi3-RlucII and 0.6 μg of GFP10-Gγ2 and Gβ1 sensors or 0.12 μg PKN-RBD-RlucII and 0.48 μg of rGFP-CAAX. For PKC activation, cells were transfected with 3 μg of sp-Flag-AT1R and 0.18 μg of the PKC sensor. For GTPase activation experiments, cells were transfected with 1 μg Flag-AT1R, 0.48 μg of rGFP-CAAX, and either 0.12 μg of GGA3-PBD-RlucII, PAK-CRIB-RlucII or Raf-RBD-RlucII. For biosensor validation experiments, cells were additionally transfected with 500 ng Flag-K-Ras-WT, Flag-K-Ras-G12V, Flag-K-Ras-SOS-CAAX, HA-ARF6-WT, HA-ARF6-T27N, Myc-Rac1-WT, Myc-Rac1-Q61L or Myc-Rac1-T17N. For PI3K/Akt activation experiments, cells were transfected with 0.48 μg of rGFP-CAAX and 0.12 μg of Akt (PH)-RlucII. After 18 h of transfection, the media was replaced and cells were divided for subsequent experiments. Cells were detached and seeded onto poly-L-ornithine-coated 96-well flat white bottom plates (BrandTech Scientific) at a density of 2.5 × 10^4 cells per well in media. The next day, cells were washed once with Tyrode’s buffer (140 mM NaCl, 2.7 mM KCl, 1 mM CaCl2, 12 mM NaHCO3, 5.6 mM D-glucose, 0.5 mM MgCl2, 0.37 mM NaH2PO4, 25 mM HEPES, pH 7.4) and left in Tyrode’s buffer. For kinetics of β-arrestin recruitment or β-arrestin binding to receptor and AP-2 experiments, cells were serum starved for 30 min, pretreated with 21 (50 µM) or Barbadin (100 µM) for 30 min, stimulated with 100 nM AngII or 1 µM BK and BRET signals were monitored at indicated times using a Victor X Light plate reader (PerkinElmer). Coelenterazine H (final concentration of 5 µM) was added 3–5 min prior to BRET measurements. Filter set was 460/80 nm and 535/30 nm for detecting the RlucII Renilla luciferase (donor) and YFP (acceptor) light emissions, respectively. The BRET ratio was determined by calculating the ratio of the light emitted by YFP over the light emitted by the RlucII. For G protein activation, cells were serum starved, pretreated with compounds for 30 min, stimulated with 100 nM AngII for 2 min (Gαq, Gαi3, and Rho sensors) or 5 min (PKC sensor). For the kinetics of GTPase and PI3K/Akt activation, cells were serum starved, pretreated with 21 (50 µM) or Wortmannin (200 nM) for 30 min, stimulated with ligand (100 nM AngII or 100 ng/ml EGF) and BRET signals were monitored at indicated times. […] BRET signals were monitored using a Synergy2 (BioTek) microplate reader and coelenterazine 400a (final concentrations of 5 µM) added 3–5 min prior to BRET measurements. […] The BRET ratio was determined by calculating the ratio of the light emitted by rGFP/GFP10 over the light emitted by the RlucII.

B2R = test: Confocal microscopy of YFP-tagged B2R internalization; details: 50 μM; BK
Method: One day before transfection, cells were seeded in 35-mm glass-bottom dishes (MatTek Corporation) at a density of 1 × 10^5 cells per dish. For the recordings of receptor internalization, HEK293 SL cells were transfected with 2 μg of AT1R-YFP. For the recordings of β-arrestin-2 recruitment to the receptor, HEK293SL cells were transfected with 50 ng of β-arrestin2-YFP and 250 ng of Flag-AT1R or HA-B2R. Forty-eight hours post-transfection, cells were serum starved, preincubated with DMSO (0.1% final concentration) or Rasarfin (50 μM) for 30 min at 37 °C. AT1R-expressing cells were stimulated with angiotensinII (AngII; 100 nM) and B2R-expressing cells were stimulated with bradykinin (BK; 1 μM) for 30 min (receptor-YFP) or 15 min (β-arrestin2-YFP). Cells were imaged with Zeiss LSM-510 and/or LSM-710 laser scanning confocal microscope. To detect YFP, […] and BP 505–550 nm emission filter. Images (2048 × 2048) were collected using a 63x oil immersion lens.

ERK1/2 activation by V2R = test: Western blot of V2R-mediated ERK1/2 activation (rebuttal Figure 1); details: Barbadin 100 µM

SMILES | AngII-bound AT1R removal from the PM (AT1R; 50 μM) | AngII-promoted BRET, AT1R removal from the PM (AT1R; time 0 min) | AngII-promoted BRET, AT1R removal from the PM (AT1R; time 5 min) | AngII-promoted BRET, AT1R removal from the PM (AT1R; time 15 min) | AngII-promoted BRET, AT1R removal from the PM (AT1R; time 30 min) | B2R localization by microscopy (B2R) | V2R-mediated ERK1/2 phosphorylation in HEK293 cells (ERK1/2 activation by V2R)
CC(C)C(=O)N1CCN(c2ccc(NC(=O)c3cc4ccccc4o3)cc2Cl)CC1 [Compound 21] | slowed down and decreased the extent of AngII-bound AT1R removal from the PM | 0 | -0.084 and -0.3663 and -0.1717 and -0.07933 | -0.132 and -0.4823 and -0.452 and -0.243 | -0.166 and -0.515 and -0.398 and -0.3753 | remained trapped at the PM | 
Nn1cnc2scc(-c3ccc(Cc4ccccc4)cc3)c2c1=O [Barbadin, reference compound] |  |  |  |  |  |  | potent inhibition

Reference: publication PMC8333425, “Discovery of a dual Ras and ARF6 inhibitor from a GPCR endocytosis screen” (Nature Communications, 2021)
